The assay has as its target CDK5 (Homo sapiens (Human), UniProt Q00535). As to the kind of experiment: CDK5 kinase assay (Nanosyn, Caliper microfluidic). As to conditions: ATP at Km; 12-point dose-response. Type of assay: biochemical. Here is the method: Selected compounds disclosed herein were tested in kinase assays by Nanosyn (Santa Clara, Calif.) to determine their inhibitory effect on these CDKs. The assays were performed using microfluidic kinase detection technology (Caliper Assay Platform). The compounds were tested in 12-point dose-response format in singlicate at Km for ATP.

The record followed here is patent US11643416B2, “Substituted 1′,2′-dihydro-3′H-spiro[cyclohexane-1,4′-pyrimido[5′,4′:4,5]pyrrolo[2,1-c][1,2,4]triazin]-3′-ones as cyclin-dependent kinase inhibitors” (G1 Therapeutics, Inc., priority 2020, dated 2023).

A word on the IC50: it is the midpoint of a concentration-inhibition curve.

SMILES strings stand for the structures.

Chain of CDK5 (Q00535 whole entry): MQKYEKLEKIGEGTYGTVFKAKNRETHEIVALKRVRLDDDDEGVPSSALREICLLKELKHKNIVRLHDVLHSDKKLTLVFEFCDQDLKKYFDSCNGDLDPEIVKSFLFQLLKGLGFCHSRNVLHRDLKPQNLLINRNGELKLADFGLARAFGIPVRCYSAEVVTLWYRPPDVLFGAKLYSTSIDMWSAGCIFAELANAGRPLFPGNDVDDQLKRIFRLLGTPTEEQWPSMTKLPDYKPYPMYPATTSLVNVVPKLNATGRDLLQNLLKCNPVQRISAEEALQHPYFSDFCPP
Chain of CDK5 (Q15078 whole entry partner): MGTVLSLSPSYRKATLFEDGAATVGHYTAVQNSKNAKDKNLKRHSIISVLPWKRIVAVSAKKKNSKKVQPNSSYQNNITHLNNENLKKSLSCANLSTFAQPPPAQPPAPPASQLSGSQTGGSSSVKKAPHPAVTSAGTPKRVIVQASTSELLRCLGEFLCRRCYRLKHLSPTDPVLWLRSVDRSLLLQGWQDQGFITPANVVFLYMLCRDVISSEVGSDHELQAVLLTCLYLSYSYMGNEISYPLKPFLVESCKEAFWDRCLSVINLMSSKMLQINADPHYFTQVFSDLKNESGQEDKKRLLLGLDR

The compound `CC1=NN(C)c2cc3cnc(Nc4ccc(S(N)(=O)=O)cc4)nc3n2C12CCCCC2` [Compound 46, 4-((1′,3′-dimethyl-1′H-spiro[cyclohexane-1,4′-pyrimido[5′,4′:4,5]pyrrolo[2,1-c][1,2,4]triazin]-7′-yl)amino)benzenesulfonamide] yielded an IC50 of 11 nM.

In the case of `NS(=O)(=O)c1ccc(Nc2ncc3cc4n(c3n2)C2(CCCCC2)CC(=O)N4)cc1` [Compound 2, 4-((7′-oxo-7′,8′-dihydro-6′H-spiro[cyclohexane-1,9′-pyrrolo[1,5-a:2,3-d′]dipyrimidin]-2′-yl)amino)benzenesulfonamide], the IC50 came to 1.4 nM.

For the compound `O=C(c1ccc(Nc2ncc3cc4n(c3n2)C2(CCCCC2)C(=O)NN4)cc1)N1CCNCC1` [Compound 61, 7′-((4-(piperazine-1-carbonyl)phenyl)amino)-1′,2′-dihydro-3′H-spiro[cyclohexane-1,4′-pyrimido[5′,4′:4,5]pyrrolo[2,1-c][1,2,4]triazin]-3′-one], inhibition was half-maximal at 72 nM (IC50).

Take `NS(=O)(=O)c1ccc(Nc2ncc3cc4n(c3n2)C2(C=NN4)CCCCC2)cc1` [Compound 4, 4-((1′H-spiro[cyclohexane-1,4′-pyrimido[5′,4′:4,5]pyrrolo[2,1-c][1,2,4]triazin]-7′-yl)amino)benzenesulfonamide]: the IC50 was determined as 6 nM.

Turning to `CC1C(=O)N(C)c2cc3cnc(Nc4ccc(S(N)(=O)=O)cc4)nc3n2C12CCCCC2` (centres unmarked) [Compound 43, 4-((6′,8′-dimethyl-7′-oxo-7′,8′-dihydro-6′H-spiro[cyclohexane-1,9′-pyrrolo[1,5-a:2,3-d′]dipyrimidin]-2′-yl)amino)benzenesulfonamide], it took 15 nM to reach half-maximal inhibition (IC50). This IC50 is about 2.5-fold higher than that of the compound before.

Compound `CN1CCN(C(=O)c2ccc(Nc3ncc4cc5n(c4n3)C3(CCCCC3)C(=O)NC5O)cc2)CC1` (centres unmarked) [Compound 53, 6′-hydroxy-2′-((4-(4-methylpiperazine-1-carbonyl)phenyl)amino)-6′,7′-dihydro-8′H-spiro[cyclohexane-1,9′-pyrazino[1′,2′:1,5]pyrrolo[2,3-d]pyrimidin]-8′-one] returned an IC50 of 4 nM.

The compound `NS(=O)(=O)c1ccc(Nc2ncc3cc4n(c3n2)C2(CCCCC2)C(=O)N[C@@H]4CF)cc1` [Compound 23, (S)-4-((6′-(fluoromethyl)-8′-oxo-7′,8′-dihydro-6′H-spiro[cyclohexane-1,9′-pyrazino[1′2′:1,5]pyrrolo[2,3-d]pyrimidin]-2′-yl)amino)benzenesulfonamide] registered an IC50 of 12 nM.

Consider `CN1CCN(S(=O)(=O)c2ccc(Nc3ncc4cc5n(c4n3)C3(CCCCC3)C(=O)NC5O)cc2)CC1` (centres unmarked) [Compound 50, 6′-hydroxy-2′-((4-((4-methylpiperazin-1-yl)sulfonyl)phenyl)amino)-6′,7′-dihydro-8′H-spiro[cyclohexane-1,9′-pyrazino[1′,2′:1,5]pyrrolo[2,3-d]pyrimidin]-8′-one], for which the IC50 came out at 71 nM.

`NS(=O)(=O)c1ccc(Nc2ncc3cc4n(c3n2)C2(CCCCC2)C(=O)N[C@H]4CF)cc1` [Compound 18, (R)-4-((6′-(fluoromethyl)-8′-oxo-7′,8′-dihydro-6′H-spiro[cyclohexane-1,9′-pyrazino[1′,2′:1,5]pyrrolo[2,3-d]pyrimidin]-2′-yl)amino)benzenesulfonamide] registered an IC50 of 16 nM.

Consider `CN1NC(=O)C2(CCCCC2)n2c1cc1cnc(Nc3ccc(S(N)(=O)=O)cc3)nc12` [Compound 12, 4-((1′-methyl-3′-oxo-2′,3′-dihydro-1′H-spiro[cyclohexane-1,4′-pyrimido[5′,4′:4,5]pyrrolo[2,1-c][1,2,4]triazin]-7′-yl)amino)benzenesulfonamide], for which the IC50 stood at 120 nM.

`O=C1NCC2(CCCCC2)n2c1cc1cnc(Nc3ccc(C(=O)N4CCNCC4)cc3)nc12` [Compound 55, 2′-((4-(piperazine-1-carbonyl)phenyl)amino)-7′,8′-dihydro-6′H-spiro[cyclohexane-1,9′-pyrazino[1′,2′:1,5]pyrrolo[2,3-d]pyrimidin]-6′-one] showed an IC50 of 1 nM.

`O=C(c1ccc(Nc2ncc3cc4n(c3n2)C2(CCCCC2)C(=O)NN4)cc1)N1CCOCC1` [Compound 74, 7′-((4-(morpholine-4-carbonyl)phenyl)amino)-1′,2′-dihydro-3′H-spiro[cyclohexane-1,4′-pyrimido[5′,4′:4,5]pyrrolo[2,1-c][1,2,4]triazin]-3′-one] registered an IC50 of 92 nM.

`NS(=O)(=O)c1ccc(Nc2ncc3cc4n(c3n2)C2(CCCCC2)C(=O)NN4)cc1` [Compound 3, 4-((3′-oxo-2′,3′-dihydro-1′H-spiro[cyclohexane-1,4′-pyrimido[5′,4′:4,5]pyrrolo[2,1-c][1,2,4]triazin]-7′-yl)amino)benzenesulfonamide]: the IC50 stood at 17 nM. Compared with the last compound, the IC50 is about 5.4-fold lower.

For `NC(=O)c1ccc(Nc2ncc3cc4n(c3n2)C2(CCCCC2)C(=O)NN4)cc1` [Compound 63, 4-((3′-oxo-2′,3′-dihydro-1′H-spiro[cyclohexane-1,4′-pyrimido[5′,4′:4,5]pyrrolo[2,1-c][1,2,4]triazin]-7′-yl)amino)benzamide], it took 78 nM to reach half-maximal inhibition (IC50).

Take `CN1CCN(S(=O)(=O)c2ccc(Nc3ncc4cc5n(c4n3)C3(CCCCC3)C(=O)NN5)cc2)CC1` [Compound 49, 7′-((4-((4-methylpiperazin-1-yl)sulfonyl)phenyl)amino)-1′,2′-dihydro-3′H-spiro[cyclohexane-1,4′-pyrimido[5′,4′:4,5]pyrrolo[2,1-c][1,2,4]triazin]-3′-one]: the IC50 worked out at 105 nM.

`CN1N=CC2(CCCCC2)n2c1cc1cnc(Nc3ccc(S(N)(=O)=O)cc3)nc12` [Compound 5, 4-((1′-methyl-1′H-spiro[cyclohexane-1,4′-pyrimido[5′,4′:4,5]pyrrolo[2,1-c][1,2,4]triazin]-7′-yl)amino)benzenesulfonamide] returned an IC50 of 30 nM.

Consider `CN1CCN(S(=O)(=O)c2ccc(Nc3ncc4cc5n(c4n3)C3(CCCCC3)CC(=O)N5)cc2)CC1` [Compound 51, 2′-((4-((4-methylpiperazin-1-yl)sulfonyl)phenyl)amino)-6′H-spiro[cyclohexane-1,9′-pyrrolo[1,5-a:2,3-d′]dipyrimidin]-7′(8′H)-one], for which the IC50 worked out at 7 nM. Against the preceding compound, the IC50 is about 4.3-fold lower.

In turn, `NS(=O)(=O)c1ccc(Nc2ncc3cc4n(c3n2)C2(CCCCC2)C(=O)NC4O)cc1` (centres unmarked) [Compound 1, 4-((6′-hydroxy-8′-oxo-7′,8′-dihydro-6′H-spiro[cyclohexane-1,9′-pyrazino[1′,2′:1,5]pyrrolo[2,3-d]pyrimidin]-2'-yl)amino)benzenesulfonamide] registered an IC50 of 0.68 nM. Compared with the last compound, the IC50 is about 10-fold lower.

Compound `CC1C(=O)Nc2cc3cnc(Nc4ccc(S(N)(=O)=O)cc4)nc3n2C12CCCCC2` (centres unmarked) [Compound 42, 4-((8′-methyl-7′-oxo-7′,8′-dihydro-6′H-spiro[cyclohexane-1,9′-pyrrolo[1,5-a:2,3-d′]dipyrimidin]-2′-yl)amino)benzenesulfonamide] gave an IC50 of 2 nM.

The compound `CC1=NNc2cc3cnc(Nc4ccc(S(N)(=O)=O)cc4)nc3n2C12CCCCC2` [Compound 45, 4-((3′-methyl-1′H-spiro[cyclohexane-1,4′-pyrimido[5′,4′:4,5]pyrrolo[2,1-c][1,2,4]triazin]-7′-yl)amino)benzenesulfonamide] showed an IC50 of 48 nM. This IC50 lies about 24-fold higher than the previous one.

On to `CC1C(=O)Nc2cc3cnc(Nc4ccc(S(=O)(=O)N5CCN(C)CC5)cc4)nc3n2C12CCCCC2` (centres unmarked) [Compound 59, 8′-methyl-2′-((4-((4-methylpiperazin-1-yl)sulfonyl)phenyl)amino)-6′H-spiro[cyclohexane-1,9′-pyrrolo[1,5-a:2,3-d′]dipyrimidin]-7′(8′H)-one], for which inhibition was half-maximal at 6 nM (IC50). This IC50 is about 8-fold lower than that of the compound before.

For `CN1CCN(C(=O)c2ccc(Nc3ncc4cc5n(c4n3)C3(CCCCC3)CC(=O)N5)cc2)CC1` [Compound 54, 2′-((4-(4-methylpiperazine-1-carbonyl)phenyl)amino)-6′H-spiro[cyclohexane-1,9′-pyrrolo[1,5-a:2,3-d′]dipyrimidin]-7′(8′H)-one], the IC50 worked out at 3 nM.

As to `C[C@@H]1NC(=O)C2(CCCCC2)n2c1cc1cnc(Nc3ccc(S(N)(=O)=O)cc3)nc12` [Compound 19, (S)-4-((6′-methyl-8′-oxo-7′,8′-dihydro-6′H-spiro[cyclohexane-1,9′-pyrazino[1′,2′:1,5]pyrrolo[2,3-d]pyrimidin]-2′-yl)amino)benzenesulfonamide], the IC50 turned out to be 50 nM.

Regarding `CN1CCN(C(=O)c2ccc(Nc3ncc4cc5n(c4n3)C3(CCCCC3)C(=O)NN5)cc2)CC1` [Compound 52, 7′-((4-(4-methylpiperazine-1-carbonyl)phenyl)amino)-1′,2′-dihydro-3′H-spiro[cyclohexane-1,4′-pyrimido[5′,4′:4,5]pyrrolo[2,1-c][1,2,4]triazin]-3′-one], 84 nM corresponded to half-maximal inhibition (IC50). This IC50 lies about 1.7-fold higher than the previous one.

Turning to `CNC(=O)c1ccc(Nc2ncc3cc4n(c3n2)C2(CCCCC2)C(=O)NN4)cc1` [Compound 64, N-methyl-4-((3′-oxo-2′,3′-dihydro-1′H-spiro[cyclohexane-1,4′-pyrimido[5′,4′:4,5]pyrrolo[2,1-c][1,2,4]triazin]-7′-yl)amino)benzamide], the IC50 stood at 65 nM.

For the compound `CN(C)C(=O)c1ccc(Nc2ncc3cc4n(c3n2)C2(CCCCC2)C(=O)NN4)cc1` [Compound 62, N,N-dimethyl-4-((3′-oxo-2′,3′-dihydro-1′H-spiro[cyclohexane-1,4′-pyrimido[5′,4′:4,5]pyrrolo[2,1-c][1,2,4]triazin]-7′-yl)amino)benzamide], it took 131 nM to reach half-maximal inhibition (IC50).
